Tests used:
NF-kB = NF-kB promoter-driven firefly luciferase reporter assay in SH-5YSY clone C1; format: cell-based, human; conditions: for IC50: Homo sapiens, SH-5YSY clone C1, NF-kB luciferase reporter
From the text: SH-5YSY human neuroblastoma cell line was obtained from the American Tissue Culture collection (ATCC). The cells were expanded and frozen for long term storage. A commercially available expression vector containing the NF-kB promoter enhancer region driving the firefly lucipherase gene expression (see FIG. 1) was obtained. This plasmid was designed for transient expression studies and was devoid of any antibiotic-resistance conferring gene. A second plasmid containing the gene conferring resistance to blasticidin was also used. A dual transfection approach to obtain stable cell lines was employed. Prior to transfection, blasticidin sensitivity of the cell line was performed (See FIG. 2). It was determined that SH-5YSY cells were sensitive to the antibiotic toxicity and that 3 μg/ml caused total cell death (FIG. 2). After expanding and purifying adequate quantities of these plasmids, SH-5YSY cells were co-transfected with the above two plasmids and the clonal selection of the transfected cells in the presence of blasticidin proceeded. Several clones were identified that were both resistant to blasticidin and expressed the firefly luciferase upon exposure to TNF-α, □ a known inducer of NF-kB (See FIG. 3). After several assessments, a clone, C1, which expressed high levels of stimulated-luciferase expression and maintained it over time (see FIG. 3) was identified. To date, this clone has been in culture for over 37 passages without significant decline of the gene of interest induction. The optimal conditions for this assay to be carried out in a high throughput setting has been determined. Initially, the optimal number of cells needed was assessed. In FIG. 4 it is shown the effect of using a range of cells from 10,000 to 40,000. […] The assays has have been implemented using a similar cell density for HTS analysis without excessive problems. This cell line allows growing large scale quantities of cells fairly easily.
Successively, the optimal time of incubation and media requirements were assessed. […] These conditions are relatively affordable in HTS settings. Finally, since during robotic handling the plates containing the cells spend a significant amount of time outside the incubator and since phenol red could interfere with the reagents in the luciferase activity assay kit, the effect of using a phenol red free HEPES-buffered media was assessed. As shown in FIG. 5 there is a very little effect of phenol red free, HEPES-buffered media on the assay response and dynamic range. Therefore, the assessment is that it is possible to run this assay using these more forgiving media. Since the compounds contained in the most commonly used libraries are dissolved in DMSO, the effect of DMSO on both luciferase expression in response to TNF-α and C1 clone survival during assay simulations was characterized. The effect of increasing concentration of DMSO ranging from 0.05% through 0.5% on TNF-α induction of luciferase (black line and black scale) is shown in FIG. 6. Also the effect of DMSO on baseline expression of luciferase in the C1 clone is shown in FIG. 6 (gray line and gray scale). In FIG. 7, it is shown the effect of DMSO on cell survival in the same conditions described in FIG. 6. In these experimental settings cells, settled for 24 hours, and then were incubated for an additional 24 hours with DMSO at the indicated concentrations. At the end of the incubation phase cell viability was assessed using the commercially available kit Cell Titer Glo™ following the manufacturer instructions ([…]). […] Finally, the effect of different concentrations of TNF-α was studied in the clone C1.
Essential to development of an assay for high throughput screening is the assessment of Z′ values. This statistical parameter assesses the possibility that data obtained in a single well are statistically significant. In general, assays can generate negative and positive Z′ values. Negative Z′ values indicate a very unpredictable assay. […]

SH-5YSY cells = experiment: Blasticidin sensitivity of SH-5YSY cells; format: cell-based, human
From the text: SH-5YSY human neuroblastoma cell line was obtained from the American Tissue Culture collection (ATCC). The cells were expanded and frozen for long term storage. A commercially available expression vector containing the NF-kB promoter enhancer region driving the firefly lucipherase gene expression (see FIG. 1) was obtained. This plasmid was designed for transient expression studies and was devoid of any antibiotic-resistance conferring gene. A second plasmid containing the gene conferring resistance to blasticidin was also used. A dual transfection approach to obtain stable cell lines was employed. Prior to transfection, blasticidin sensitivity of the cell line was performed (See FIG. 2). It was determined that SH-5YSY cells were sensitive to the antibiotic toxicity and that 3 μg/ml caused total cell death (FIG. 2). After expanding and purifying adequate quantities of these plasmids, SH-5YSY cells were co-transfected with the above two plasmids and the clonal selection of the transfected cells in the presence of blasticidin proceeded. […] The optimal conditions for this assay to be carried out in a high throughput setting has been determined. Initially, the optimal number of cells needed was assessed. […] This cell line allows growing large scale quantities of cells fairly easily.

I-kB and NF-kB p65 = experiment: Effect on I-kB and NF-kB p65 in cytoplasm and nucleus (FIG. 14); format: cell-based; conditions: FIG. 14 A
From the text: A) I-kB was not affected by CMPD exposure while it was reduced by TNF. B) CMPDs increased cytoplasmic NF-kB p65. C) CMPDs increased nuclear localization of NF-kB p65. D) The sum of CMPD effects on P65 in the cytoplasm and in the nucleus.

Molecule | IC50 (NF-kB) [µM] | other results
Clc1c(CSc2nc3ccccc3o2)nc2sccn12 [AB00428616] | 2.41 | 
COc1ccc(-c2csc(Nc3ccc(N(C)C)cc3)n2)cc1 [AB00101290] | 0.144 | 
O=C(O)c1ccc(-c2nnc(-c3ccccc3Cl)o2)cc1 [AB00101507] | 0.337 | 
O=C1/C(=C\c2ccco2)Sc2ccccc21 [AB00083422] | 3650 | 
Oc1ccc2ccccc2c1C1NN=C(c2ccccc2)S1 (stereo not drawn) [AB00093094] | 0.788 | 
COc1ccc(-c2cn3c4c(sc3n2)CCCC4)cc1 [AB00315863] | 0.65 | 
CCOC(=O)CC[C@H](NC(=O)c1ccc(NCc2cnc3nc(N)nc(N)c3c2C)cc1)C(=O)OCC [AB00174102] | 0.345 | 
CCC(=O)NC(c1cccc([N+](=O)[O-])c1)c1ccc2cccnc2c1O (stereo not drawn) [AB00101133] | 3.7 | 
CC(C)Oc1cc(O)c2c(=O)c(-c3ccc(O)cc3)coc2c1 [AB00431689] | 4.52 | 
COc1ccc(NC(=O)N2CCc3ccccc32)cc1 [AB00329861] | 0.697 | 
COc1ccc(-c2coc3cc(OC)cc(O)c3c2=O)cc1 [AB00052939] | 1.73 | 
Oc1ccccc1-c1cc(-c2ccc3c(c2)OCCO3)[nH]n1 [AB00440877] | 0.639 | 
CCC(=O)NC(c1ccc(C)cc1)c1ccc2cccnc2c1O (stereo not drawn) [AB00101018] | 3.17 | 
Fc1ccc(-c2nc3n(n2)Cc2ccccc2-3)cc1 [AB00371839] | 0.125 | 
Cc1ccc2nc(-c3ccc(NC(=O)COC(=O)c4cncc(Br)c4)cc3)sc2c1 [AB00542926] | 0.393 | 
Brc1cccc(-c2cn3ccsc3n2)c1 [AB00093745] | 0.251 | 
COCCNc1nc(-c2cc3ccccc3o2)cs1 [AB00546194] | 1.4 | 

Molecule | IC50 (NF-kB) [µM] | other results
CN(CC[C@H](N)CC(=O)N[C@H]1C=C[C@H](n2ccc(N)nc2=O)O[C@@H]1C(=O)O)C(=N)N [blasticidin] |  | concentration causing total cell death (SH-5YSY cells): 3 µg/mL
O=c1c(-c2ccc3c(c2)OCCO3)coc2cc(O)cc(O)c12 [AB00390364] | 22.7 | 
COc1cccc(-c2nnc(-c3ccccc3NS(=O)(=O)c3ccc(NC(C)=O)cc3)o2)c1 [AB00027137] | 0.13 | 
CN(Cc1cnc2nc(N)nc(N)c2c1)c1ccc(C(=O)N[C@@H](CCC(=O)O)C(=O)O)cc1 [AB00171904] | 0.159 | 
TNF-α [reference compound] |  | luciferase expression in C1 cells (NF-kB; 0.625 up to 40 ng/ml): linear increase; I-kB (I-kB and NF-kB p65): reduced
Cc1ccc(/C=C2/SC(=S)N(CCC(=O)Nc3ccc(O)cc3)C2=O)cc1 [AB00089877] | 1310 | 
CC(=O)CSc1nc2cc3c(cc2cc1C#N)OCCO3 [AB00614173] | 0.104 | 
COc1ccc(C(=O)/C=C(\C)Nc2ccccc2O)cc1 [AB00102118] | 0.235 | 
O=C(/C=C/Nc1cc(Cl)ccc1O)c1ccccc1 [AB00087011] | 0.213 | 
c1ccc(CSCc2cn3ccsc3n2)cc1 [AB00421150] | 12.6 | 
Cc1ccccc1-c1cc(-c2ccccc2O)n[nH]1 [AB00101695] | 0.579 | 
COc1ccc(-c2cc(-c3ccccc3O)[nH]n2)cc1 [AB00461411] | 0.968 | 
Cc1ccc(/C=C2\Sc3ccccc3C2=O)s1 [AB00534272] | 5.98 | 
S=C(c1ccc(-c2ccc(Cl)c(Cl)c2)o1)N1CCOCC1 [AB00091724] | 5.19 | 
S=C(c1ccc(-c2ccc(Cl)cc2)o1)N1CCOCC1 [AB00092070] | 0.775 | 
Cc1ccc2nc(-c3ccc(NS(=O)(=O)c4ccccc4OC(F)(F)F)cc3)sc2c1 [AB00003451] | 0.156 | 
O=C1/C(=C\c2ccc(O)cc2)Sc2ccccc21 [AB00083765] | 3.72 | 

Continued by falling IC50 (NF-kB), values first:

IC50 (NF-kB) [µM] | Molecule | other results
146 | O=C(CCN1C(=O)/C(=C\C=C\c2ccccc2)SC1=S)Nc1cc(Cl)ccc1O [AB00120582] | 
4.06 | Clc1ccc(C2NN=C(c3ccccc3)S2)cc1 (stereo not drawn) [AB00093093] | 
3.97 | CCC(=O)NC(c1ccccc1Cl)c1ccc2cccnc2c1O (stereo not drawn) [AB00100961] | 
3.4 | S=C(c1ccc(-c2cccc(Cl)c2)o1)N1CCOCC1 [AB00092117] | 
0.966 | c1ccc2oc(-c3csc(N4CCOCC4)n3)cc2c1 [AB00613917] | 
0.598 | C=CCNc1nc(-c2cc3ccccc3o2)cs1 [AB00546606] | 
0.545 | O=C(CCN1C(=O)/C(=C\C=C\c2ccccc2)SC1=S)Nc1ccc(C(=O)O)cc1 [AB00121550] | 
0.382 | Oc1ccccc1C1NN=C(c2ccccc2)S1 (stereo not drawn) [AB00092734] | 
0.382 | Fc1ccc(-c2cn3ccsc3n2)cc1 [AB00093742] | 
0.361 | Cc1ccc(NC(=O)N2CCc3ccccc32)cc1C [AB00616066] | 
0.328 | Cc1nnc(SCC(=O)Nc2ccc(-c3nc4ccccc4s3)cc2)s1 [AB00317535] | 
0.213 | O=C(/C=C\Nc1cc(Cl)ccc1O)c1ccc2c(c1)OCO2 [AB00101723] | 
0.18 | O=C(Nc1ccc(F)cc1)N1CCc2ccccc21 [AB00105762] | 
0.155 | Cc1ccc2nc(-c3ccc(NC(=O)CCN4C(=O)c5ccccc5C4=O)cc3)sc2c1 [AB00547004] | 
0.155 | COc1cc(C)c(S(=O)(=O)Nc2ccc(-c3nc4ccc(C)cc4s3)cc2)c(C)c1C [AB00012207] | 
0.142 | Cc1ccc(-c2csc(Nc3ccccc3)n2)cc1 [AB00079697] | 

IC50 (NF-kB) [µM] | Molecule | other results
0.133 | CC(C)(C)c1ccc(-c2csc(N)n2)cc1 [AB00095939] | 
0.123 | COc1cc(NCc2cnc3nc(N)nc(N)c3c2C)cc(C(F)(F)F)c1 [AB00443206] | 
0.122 | Nc1nc(-c2ccc(-c3ccccc3)cc2)cs1 [AB00074195] | 
0.114 | O=C(Nc1ccc2c(c1)OCCO2)Nc1ccc2c(c1)OCO2 [AB00616088] | 
0.111 | Cc1ccc2nc(-c3ccc(NS(=O)(=O)c4ccc(F)c(Cl)c4)cc3)sc2c1 [AB00011625] | 
0.1 | COc1ccccc1-c1nc(-c2ccc(C)cc2)no1 [AB00093558] | 
0.094 | Brc1ccc(-c2cn3ccccc3n2)s1 [AB00528862] | 
0.082 | COc1ccc(-c2noc(-c3cccc(OC)c3)n2)cc1 [AB00093467] | 
0.079 | COc1ccccc1-c1nc(-c2ccccc2Cl)no1 [AB00093511] | 
0.067 | COC(=O)c1sc2nc(-c3ccccc3)ccc2c1N [AB00079098] | 
0.067 | COc1ccccc1C1CCN(C(=O)NCCc2ccccc2)CC1 [AB00013805] | 
0.065 | C=C(C)CN(CC)C(=O)Nc1ccc(-c2ccccc2)cc1 [AB00022459] | 
0.064 | O=c1[nH]c(/C=C/c2ccc(O)cc2)nc2ccccc12 [AB00097657] | 
0.062 | Clc1ccc(-c2nnc(-c3ccccc3Cl)o2)cc1 [AB00084000] | 
0.062 | Cc1ccc(-c2csc(Nc3ccc(C(=O)O)cc3)n2)cc1C [AB00097765] | 

Source: patent publication US10953017B2, “Treatment of neurodegenerative diseases, causation of memory enhancement, and assay for screening compounds for such” (Southern Research Institute, priority 2009, dated 2021)
